The values below come from paper PMC9783881, “Synthesis and Preclinical Evaluation of Small-Molecule Prostate-Specific Membrane Antigen-Targeted Abiraterone Conjugate” (Molecules, 2022).

Each structure is given as a SMILES string. Entries after “also recorded” stand apart in the source; their conditions may differ.

The subject of one data set is 22Rv1. As to the kind of experiment: Single cell ROS measurement with Pt-nanoelectrodes, 22Rv1. The format is cell-based, human. The conditions noted are these: 22Rv1, 1 h incubation, IC50 concentration. The method, then:
(§1) Commercially available, disk-shaped carbon nanoelectrodes isolated in quartz (ICAPPIC Limited, London, UK) with diameters of 60–100 nm were used to prepare Pt nanoelectrodes for the amperometric detection of intracellular ROS level. Preparation of Pt-nanoelectrodes has been described in detail previously.
(§2) Briefly, a disk-shaped carbon nanoelectrode was etched in a 0.1 M NaOH, 10 mM KCl solution for 20–40 cycles of 10 seconds (from 0 to +2200 mV) to create nanocavities. Electrochemical deposition of platinum in nanocavities was achieved by cycling from 0 to −800 mV with a scan rate of 200 mV s^−1 for 8 to 10 cycles in 2 mM H2PtCl6 solution in 0.1 M hydrochloric acid. […]
(§3) The setup for amperometric measurements included a PC that was connected to a system consisting of an ADC–DAC converter Axon Digidata 1550B (Axon Instruments, Burlingame, CA, USA) and patch-clamp amplifier MultiClamp 700B (Axon Instruments, USA). […] The potential difference between the Pt-nanoelectrode and the reference electrode was recorded with the pClamp 11 software suite (Molecular Devices, Silicon Valley, CA, USA) and processed with Origin 2018 software.
(§4) PC-3 (2.0 × 10^5)/22Rv1 (3.5 × 10^5) cells were seeded in 35 mm Petri dishes, incubated under the conditions described above, and then treated for 24 h. […] Untreated cells were used as a control, which was evaluated at the beginning and at the end of the experiment. […]

In the next data set the target is T1, cytochrome P450 2D6 (Homo sapiens, UniProt P10635).
T1 construct: isoenzyme activity in human liver microsomes using conventional sample substrates and HPLC-MS/MS detection; from tissue; host or cells: human liver microsomes
T1 sequence (P10635 whole entry): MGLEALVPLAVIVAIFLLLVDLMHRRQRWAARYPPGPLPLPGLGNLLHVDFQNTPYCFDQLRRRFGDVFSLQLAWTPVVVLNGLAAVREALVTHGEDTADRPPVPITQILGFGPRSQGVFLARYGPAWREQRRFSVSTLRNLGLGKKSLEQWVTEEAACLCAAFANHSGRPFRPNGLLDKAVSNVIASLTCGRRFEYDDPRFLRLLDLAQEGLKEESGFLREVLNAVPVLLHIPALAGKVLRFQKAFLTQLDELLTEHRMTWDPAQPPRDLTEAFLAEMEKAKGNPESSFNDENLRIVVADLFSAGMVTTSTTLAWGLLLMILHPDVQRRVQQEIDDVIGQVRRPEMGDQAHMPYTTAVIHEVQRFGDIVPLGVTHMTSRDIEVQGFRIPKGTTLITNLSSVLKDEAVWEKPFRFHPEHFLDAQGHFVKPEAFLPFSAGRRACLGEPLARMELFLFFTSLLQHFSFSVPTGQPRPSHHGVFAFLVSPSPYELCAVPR
As to the kind of experiment: Cytochrome inhibition in human liver microsomes, 2D6. The format is in vitro ADME. As to conditions: substrate Dextromethorphan, read-out: IC50, 2D6 (PSMA-Abi). From the text:
(§5) To assess the effect of drugs on liver cytochrome activity in drug development, test systems with recombinant enzymes and fluorescent substrates as well as microsomes with metabolic substrates and HPLC-MS/MS analysis were used. The present study aimed to investigate the effect of targeted delivery drugs specific to malignant prostate cells on cytochrome P450 (CYP450) isoenzyme activity in human liver microsomes using conventional sample substrates and HPLC-MS/MS detection. Detailed methodological parameters are described in the Supplementary Material.

A further data set has as its target T2, cytochrome P450 2C9 (Homo sapiens, UniProt P11712).
T2 construct: isoenzyme activity in human liver microsomes using conventional sample substrates and HPLC-MS/MS detection; from tissue; host or cells: human liver microsomes
The experiment in a line: Cytochrome inhibition in human liver microsomes, 2C9. The format is in vitro ADME. As to conditions: substrate Tolbutamide, read-out: IC50, 2C9 (PSMA-Abi).
From the text: as §5

The target in a further data set is T3, cytochrome P450 2C19 (Homo sapiens, UniProt P33261).
T3 construct: isoenzyme activity in human liver microsomes using conventional sample substrates and HPLC-MS/MS detection; from tissue; host or cells: human liver microsomes
T3 sequence (P33261 whole entry): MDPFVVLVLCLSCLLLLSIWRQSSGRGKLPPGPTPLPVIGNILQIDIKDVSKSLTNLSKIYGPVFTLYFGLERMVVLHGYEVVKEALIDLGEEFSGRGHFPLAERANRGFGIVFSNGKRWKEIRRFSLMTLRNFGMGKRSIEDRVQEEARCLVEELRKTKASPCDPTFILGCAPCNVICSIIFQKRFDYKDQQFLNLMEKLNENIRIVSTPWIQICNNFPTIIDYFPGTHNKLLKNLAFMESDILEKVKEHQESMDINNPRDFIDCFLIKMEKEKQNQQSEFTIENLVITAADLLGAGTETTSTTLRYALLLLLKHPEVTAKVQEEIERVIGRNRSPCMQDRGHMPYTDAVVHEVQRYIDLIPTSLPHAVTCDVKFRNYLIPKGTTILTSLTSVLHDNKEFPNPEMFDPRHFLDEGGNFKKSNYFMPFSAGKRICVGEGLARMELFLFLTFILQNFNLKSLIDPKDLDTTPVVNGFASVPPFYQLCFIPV
As to the kind of experiment: Cytochrome inhibition in human liver microsomes, 2C19. The conditions noted are these: substrate Mephenytoin, read-out: IC50, 2C19 (PSMA-Abi). The format is in vitro ADME.
From the text: as §5

The nature of another data set: Acute toxicity in mice. The format is in vivo. The method, then:
White, outbred male mice (ICR) about 2 months old weighing 19–21 g were used. Conjugate PSMA-Abi (2000 mg/kg) was formulated with 1% starch gel solution. The mixture was administrated intragastrically in an amount not exceeding 0.5 mL, and in portions if necessary. The control group was administered 1% starch gel solution. Animals were kept under controlled environmental conditions: air temperature 20–26 °C and relative humidity 30–70%. Lighting in the rooms was artificial (a cycle of 12 h of light, 12 h of darkness). Before the start of the study, animals were divided into groups of 10 animals per group. The distribution was made such that the average masses of groups of animals of one species differed by no more than 10%. Before the experiment concerning the determination of acute toxicity, the animals were deprived of food and water (mice for 2 h) and then weighed. The duration of observation of laboratory animals was 14 days. During this period, visible signs of intoxication were evaluated. Dose selection was carried out based on 22Rv1 xenograft experiments with the maximum effective dose for mice of 500 mg/kg.

Another data set has as its system PC-3. As to the kind of experiment: Single cell ROS measurement with Pt-nanoelectrodes, PC-3. The format is cell-based, human. As to conditions: PC-3, 1 h incubation, IC50 concentration. The protocol: as §1, §2, §3, §4
Data set [1] can be described thus: Water solubility (comparison in words). The class given is physicochemical. The conditions noted are these: compared to AbiAc.
In another data set the target is T4, cytochrome P450 2C8 (Homo sapiens, UniProt P10632).
T4 construct: isoenzyme activity in human liver microsomes using conventional sample substrates and HPLC-MS/MS detection; from tissue; host or cells: human liver microsomes
T4 sequence (P10632 1-490): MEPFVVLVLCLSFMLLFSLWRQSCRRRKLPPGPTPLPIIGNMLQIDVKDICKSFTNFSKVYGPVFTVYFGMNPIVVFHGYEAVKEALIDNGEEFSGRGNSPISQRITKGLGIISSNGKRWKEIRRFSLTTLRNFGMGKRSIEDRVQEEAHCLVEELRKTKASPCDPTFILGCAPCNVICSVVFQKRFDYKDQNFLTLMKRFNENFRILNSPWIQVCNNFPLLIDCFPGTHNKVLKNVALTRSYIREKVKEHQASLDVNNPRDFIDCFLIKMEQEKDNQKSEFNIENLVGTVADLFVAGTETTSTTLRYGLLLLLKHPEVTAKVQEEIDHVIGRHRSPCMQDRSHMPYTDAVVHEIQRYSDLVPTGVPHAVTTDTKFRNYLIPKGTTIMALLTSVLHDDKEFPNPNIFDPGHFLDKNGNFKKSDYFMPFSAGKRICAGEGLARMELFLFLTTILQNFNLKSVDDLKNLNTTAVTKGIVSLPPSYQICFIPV
The experiment in a line: Cytochrome inhibition in human liver microsomes, 2C8. The format is in vitro ADME. As to conditions: substrate Paclitaxel, read-out: IC50, 2C8 (PSMA-Abi).
From the text: as §5
(In general: Microsomes from liver hold many membrane-bound enzymes, among them those of drug oxidation.)

Where [2] appears, read: mice males, 2000 mg/kg single, M±SD.

T2 sequence (P11712 whole entry): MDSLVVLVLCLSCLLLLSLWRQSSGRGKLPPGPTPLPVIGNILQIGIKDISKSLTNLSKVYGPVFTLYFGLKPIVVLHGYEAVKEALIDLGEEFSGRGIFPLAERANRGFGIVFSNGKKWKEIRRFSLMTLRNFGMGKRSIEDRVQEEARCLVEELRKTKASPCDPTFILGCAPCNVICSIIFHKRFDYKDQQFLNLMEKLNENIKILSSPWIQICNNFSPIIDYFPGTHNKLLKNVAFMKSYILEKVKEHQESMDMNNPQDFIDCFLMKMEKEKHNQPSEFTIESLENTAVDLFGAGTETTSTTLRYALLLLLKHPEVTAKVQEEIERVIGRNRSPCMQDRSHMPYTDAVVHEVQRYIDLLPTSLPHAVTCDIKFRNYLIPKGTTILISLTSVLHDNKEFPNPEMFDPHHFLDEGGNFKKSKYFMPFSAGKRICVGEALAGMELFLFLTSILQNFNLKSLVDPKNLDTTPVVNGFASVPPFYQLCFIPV

Turning to `C[C@]12CC[C@H](OC(=O)CCCc3cn(CCCNC(=O)[C@H](Cc4ccc(O)cc4)NC(=O)[C@H](Cc4ccccc4)NC(=O)CCC(=O)NCCCCCC(=O)N(CCCC[C@H](NC(=O)N[C@@H](CCC(=O)O)C(=O)O)C(=O)O)Cc4cccc(Cl)c4)nn3)CC1=CC[C@@H]1[C@@H]2CC[C@]2(C)C(c3cccnc3)=CC[C@@H]12` [PSMA-Abi], the “ROS (hydrogen peroxide) level in single cells” value with 22Rv1 was “significant increase in comparison with both the control and AbiAc groups”; with PC-3, “remained at the level of the AbiAc sample”. Further, the half-maximal inhibitory concentration (IC50) was 17 ± 1 µM on cytochrome P450 2D6, over 25 µM on cytochrome P450 2C9, over 25 µM on cytochrome P450 2C19 and 4.4 ± 1.1 µM on cytochrome P450 2C8. For the same compound, in “Acute toxicity in mice” (setting [2]), the “weight dynamic, % of starting weight, 5 days” value came to 17.5±7.4%. Besides, in the data set “Acute toxicity in mice” (setting [2]), the “weight dynamic, % of starting weight, 10 days” value is recorded as 30.9±11.5%. Moreover, in the data set “Acute toxicity in mice” (setting [2]), the “weight dynamic, % of starting weight, 14 days” value is 30.7±17.9%. The “growth rate (body weight), % of initial weight” value in “Acute toxicity in mice” (mice, 2000 mg/kg single dose, by the 14th day, control 50) was determined as 30%. Also, the animal death entry in “Acute toxicity in mice” (mice, 2000 mg/kg single dose, intragastric, 14 days observation, 2000 mg/kg) is “No animal death was observed; also recorded: without animal death”. This compound also gave a tolerable dose in the data set “Acute toxicity in mice” (mice, single dose) of 2000 mg/kg. For the same compound, in data set [1], the water solubility result is on record as “better water solubility compared to the AbiAc”.

What is called IC50 is the concentration that inhibits the measured activity by half.
